Results on one substance are retold here after patent US9718738B2 (priority 2014, dated 2017).

One assay relates to grain corn. To be noted: in vivo.
Assay [1] has as its system long white bunching onions. The following applies: in vivo.

urea registered a grain yield in the assay on grain corn of 180.5 bu/acre. Also, in assay [1], the “plant height after 6 weeks” value is “performing poorer than no nitrogen fertilizer at all”.
